Target: triosephosphate isomerase (TcTIM WT) (Trypanosoma cruzi, UniProt P52270)
Experiment: coupled enzyme assay
Format: biochemical
Conditions: read-out: approximately 95% inactivation

Sequence of triosephosphate isomerase (TcTIM WT) (P52270 whole entry): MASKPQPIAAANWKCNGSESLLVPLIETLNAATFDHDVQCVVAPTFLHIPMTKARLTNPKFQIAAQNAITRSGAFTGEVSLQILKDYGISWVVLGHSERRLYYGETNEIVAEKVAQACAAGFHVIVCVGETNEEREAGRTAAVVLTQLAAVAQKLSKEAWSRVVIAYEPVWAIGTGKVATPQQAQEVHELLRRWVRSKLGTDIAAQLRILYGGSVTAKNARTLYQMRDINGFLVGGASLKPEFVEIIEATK

`COCCCOc1ccnc(C[S+]([O-])c2nc3ccccc3[nH]2)c1C` (stereo not shown) [Rbz, rabeprazole] was tested. Which IC95 did it give?
The IC95 was ~75 µM.

From publication PMC10351538 (Journal of Enzyme Inhibition and Medicinal Chemistry, 2023)
